Assay results from patent publication US8871767B2, “2-arylimidazo[1,2-B]pyridazine, 2-phenylimidazo[1,2-A]pyridine, and 2-phenylimidazo[1,2-A]pyrazine derivatives” (Hengrui (USA) Ltd., priority 2010, dated 2014).
Read-outs that look alike come from different tables or passages of the source.

Key:
[1] = test system: Hedgehog pathway activation (GLi-luciferase reporter) in Shh Light II reporter cells; assay: Hedgehog pathway activation on Shh Light II reporter cells measured by luciferase activity; type: cell-based; details: Mus musculus, Shh Light II
Method in brief: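 Shh Light II reporter cells carrying a hedgehog-responsive GLi-luciferase reporter were stimulated either with 500 nM SAG, a direct Smoothened agonist, or with conditioned media containing human Sonic Hedgehog (hShh). Test compounds were evaluated for blocking this pathway activation, quantified by luciferase activity. Cell viability was monitored in parallel with the Celltiter-Blue® assay.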

[2] = test system: Hedgehog pathway activation on 10T1/2/Smo#3 cells (C3H10T1/2 cells transfected with human Smoothened receptor); assay: Hedgehog pathway activation on 10T1/2/Smo#3 cells measured by ALP activity; type: cell-based; details: Mus musculus, C3H 10T1/2, 10T1/2/Smo#3 cells
Method in brief: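 C3H10T1/2 cells stably expressing human Smoothened were activated with hShh-conditioned medium (10-20%) or 500 nM SAG, with test compounds present. Pathway block read as inhibited ALP activity (4-methylumbelliferyl phosphate fluorescence); viability checked by CellTiter-Blue. IC50 values reported.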

[3] = hShh activation, read-out: Shh (IC50, inhibition of Hedgehog pathway activation)
[4] = measured by ALP activity, read-out: ALP (IC50, inhibition of Hedgehog pathway activation)
[5] = SAG activation (500 nM SAG), read-out: Shh Light II luciferase activity (SAG activation)
[6] = hShh activation, read-out: Shh Light II luciferase activity (hShh activation)
[7] = hShh activation, ALP activity, read-out: 10T1/2/Smo#3 ALP activity (hShh Activation)

Row | Compound | IC50 [1, 3] [nM] | IC50 [2, 4] [nM] | IC50 [1, 5] [nM] | IC50 [1, 6] [nM] | IC50 [2, 7] [nM]
1 | CC(C)(C)C(=O)Nc1cc(-c2cn3nc(-c4cnccc4Cl)ccc3n2)ccc1C(F)(F)F [Example 386, N-(5-(6-(4-chloropyridin-3-yl)imidazo[1,2-b]pyridazin-2-yl)-2-(trifluoromethyl)phenyl)pivalamide] | 3090 | 1710 |  |  | 
2 | CCOc1ccc2nc(-c3ccc(C(F)(F)F)c(S(=O)(=O)NC4CC4)c3)cn2n1 [Example 212, N-cyclopropyl-5-(6-ethoxyimidazo[1,2-b]pyridazin-2-yl)-2-(trifluoromethyl)benzenesulfonamide] | > 10000 | 5760 | 3000 to 30000 | 3000 to 30000 | 3000 to 30000
3 | CC1(C(=O)Nc2cc(-c3cn4nc(-c5cccnc5C(F)(F)F)ccc4n3)ccc2Cl)CC1 [Example 653, N-(2-chloro-5-(6-(2-(trifluoromethyl)pyridin-3-yl)imidazo[1,2-b]pyridazin-2-yl)phenyl)-1-methylcyclopropanecarboxamide] | 10 | 80 |  |  | 
4 | Cc1ccc(-c2cn3nc(-c4ccccc4C(F)(F)F)ccc3n2)cc1NC(=O)C(C)(C)C [Example 259, N-(2-methyl-5-(6-(2-(trifluoromethyl)phenyl)imidazo[1,2-b]pyridazin-2-yl)phenyl)pivalamide] | 84 | 80 |  |  | 
5 | O=C(Nc1cc(-c2cn3nc(-c4cccnc4C(F)(F)F)ccc3n2)ccc1F)N1CCCC1 [Example 686, N-(2-fluoro-5-(6-(2-(trifluoromethyl)pyridin-3-yl)imidazo[1,2-b]pyridazin-2-yl)phenyl)pyrrolidine-1-carboxamide] | 149 | 218 |  |  | 
6 | CNC(=O)c1cccc(-c2ccc3nc(-c4ccc(C)c(NC(=O)C(C)(C)C)c4)cn3n2)c1 [Example 453, N-methyl-3-(2-(4-methyl-3-pivalamidophenyl)imidazo[1,2-b]pyridazin-6-yl)benzamide] | 582 | 751 |  |  | 
7 | Cc1c(-c2ccccc2)nc2ccc(N3CCN(Cc4ccccn4)CC3)nn12 [Example 160, 3-methyl-2-phenyl-6-(4-(pyridin-2-ylmethyl)piperazin-1-yl)imidazo[1,2-b]pyridazine] | 2510 | 627 |  |  | 
8 | Cc1ccc(-c2cn3nc(-c4cccnc4C(F)(F)F)ccc3n2)cc1C(=O)NC(C)(C)C [Example 483, N-tert-butyl-2-methyl-5-(6-(2-(trifluoromethyl)pyridin-3-yl)imidazo[1,2-b]pyridazin-2-yl)benzamide] | 72 | 114 | 300 to 3000 | < 300 | < 300
9 | CC(C)(C)C(=O)Nc1cc(-c2cn3nc(N4CCC(O)CC4)ccc3n2)ccc1C(F)(F)F [Example 237, N-(5-(6-(4-hydroxypiperidin-1-yl)imidazo[1,2-b]pyridazin-2-yl)-2-(trifluoromethyl)phenyl)pivalamide] | 245 | 211 |  |  | 
10 | COc1ccc2nc(-c3ccc(C)c(NC(=O)c4cccc(C(F)(F)F)c4)c3)cn2n1 [Example 100, N-(5-(6-methoxyimidazo[1,2-b]pyridazin-2-yl)-2-methylphenyl)-3-(trifluoromethyl)benzamide] | 1090 | 1060 |  |  | 
11 | Cc1ccc(-c2cn3nc(-c4ccc(C=CC(=O)NO)cc4)ccc3n2)cc1NC(=O)C(C)(C)C [compound 560] | 402 | 481 | 3000 to 30000 | < 300 | 300 to 3000
12 | Cc1ccc(-c2nc3ccc(-c4ccccc4F)nn3c2C)cc1NC(=O)C(C)(C)C [Example 312, N-(5-(6-(2-fluorophenyl)-3-methylimidazo[1,2-b]pyridazin-2-yl)-2-methylphenyl)pivalamide] | 213 | 326 |  |  | 
13 | Cc1c(-c2ccccc2)nc2ccc(N3CCN(C(=O)CC(C)(C)C)CC3)nn12 [Example 157, 3,3-dimethyl-1-(4-(3-methyl-2-phenylimidazo[1,2-b]pyridazin-6-yl)piperazin-1-yl)butan-1-one] | 1950 | > 10000 |  |  | 
14 | Cc1ccc(-c2cn3nc(-c4cccnc4C(F)(F)F)ccc3n2)cc1NC(=O)CCCCCCC(=O)NO [Example 429, N^1-hydroxy-N^8-(2-methyl-5-(6-(2-(trifluoromethyl)pyridin-3-yl)imidazo[1,2-b]pyridazin-2-yl)phenyl)octanediamide] | 167 | 1280 | 300 to 3000 | 3000 to 30000 | 300 to 3000
15 | Cc1ccc(-c2cn3nc(-c4cc(Cl)ccc4F)ccc3n2)cc1NC(=O)C(C)(C)C [Example 262, N-(5-(6-(5-chloro-2-fluorophenyl)imidazo[1,2-b]pyridazin-2-yl)-2-methylphenyl)pivalamide] | 342 | 103 |  |  | 
16 | COCCN(C)c1ccc2nc(-c3ccc(C(F)(F)F)c(NC(=O)C(C)(C)C)c3)cn2n1 [Example 299, N-(5-(6-((2-methoxyethyl)(methyl)amino)imidazo[1,2-b]pyridazin-2-yl)-2-(trifluoromethyl)phenyl)pivalamide] | 338 | 478 |  |  | 
17 | CC(C)(C)C(=O)Nc1cc(-c2cn3nc(-c4ccncc4F)ccc3n2)ccc1C(F)(F)F [Example 177, N-(5-(6-(3-fluoropyridin-4-yl)imidazo[1,2-b]pyridazin-2-yl)-2-(trifluoromethyl)phenyl)pivalamide] | 357 | 236 |  |  | 
18 | CC(C)(C)C(=O)Nc1cc(-c2cn3nc(C#N)ccc3n2)ccc1C(F)(F)F [Example 173, N-(5-(6-cyanoimidazo[1,2-b]pyridazin-2-yl)-2-(trifluoromethyl)phenyl)pivalamide] | 4400 | 4430 | 3000 to 30000 | 3000 to 30000 | 3000 to 30000
19 | CN(C)[C@@H]1CCN(c2ccc3nc(-c4ccc(C(F)(F)F)c(NC(=O)C(C)(C)C)c4)cn3n2)C1 [Example 470, (R)-N-(5-(6-(3-(dimethylamino)pyrrolidin-1-yl)imidazo[1,2-b]pyridazin-2-yl)-2-(trifluoromethyl)phenyl)pivalamide] | 65 | 28 |  |  | 
20 | Cc1ccc(-c2cn3nc(-c4cc(C#N)ccc4F)ccc3n2)cc1NC(=O)C(C)(C)C [Example 274, N-(5-(6-(5-cyano-2-fluorophenyl)imidazo[1,2-b]pyridazin-2-yl)-2-methylphenyl)pivalamide] | 144 | 20 |  |  | 
